Assay results published in patent US6632429B1, “Methods for treating pervasive development disorders” (priority 1999, dated 2003).
No end group written: not given here.

Legend:
[1] = system: children diagnosed as having autism; test: Experiment 1: CARS (Childhood Autism Rating Scale) test pre/post secretin; format: in vivo, human (children); details: 16 autistic children
Description: Upon determining that a given child was likely to benefit from secretin administration based on the results of the fecal chymotrypsin test, the child was administered a CARS (Childhood Autism Rating Scale) test prior to being scheduled for secretin infusion.
For each of the 16 autistic children tested, a preferred secretin infusion process according to the present invention was performed involving the administering of 1 U/kg of body weight of Secretin-Ferring for a period of nine months at intervals of approximately 6 weeks. In addition, another CARS test was administered to each of the 16 autistic children 3 weeks post secretin administration to determine if their autism had changed post infusion.
A preferred secretin infusion process includes the initial step of prepping an arm of the candidate child with an IV injection of saline. A test dose of 1 U of Secretin-Ferring is then administered to the child. Approximately one minute after infusion, the child is examined for signs of allergic reaction including rash, increased heart rate, and increase of blood pressure. […] Subsequently, each child receives a 1U/kg of body weight infusion of Secretin-Ferring approximately every 6 weeks for 9 months. It is to be understood that any commercially available form of secretin may be used. […]

[2] = system: autistic children with abnormal fecal chymotrypsin levels; test: Experiment 2: fecal chymotrypsin levels during 6 months of secretin administration; format: in vivo, human (children); details: of 37 children, 6 months post-secretin administration
Description: (§1) In this experiment, 16 children diagnosed as having autism were administered the following Fecal Chymotrypsin Test in accordance with an embodiment of the invention. First, approximately 2 grams of stool were collected from each child and placed in a sterile container (although it is to be understood that any quantity of stool may be collected, as 2 grams of stool is not a required amount). Each stool sample was then analyzed using, e.g., an enzymatic photospectrometry analysis as is known by those skilled in the art, to determine the level of fecal chymotrypsin in the stool. Although the enzymatic photospectrophotometry process is preferred, any suitable conventional method may be used for measuring the fecal chymotrypsin levels. The measured chymotrypsin levels of the 16 autistic children are illustrated in FIG. 13.
After determining the chymotrypsin levels of the stools, each of these levels were compared with threshold chymotrypsin levels to determine if the child was likely to benefit from secretin administration. By way of example, with the fecal chymotrypsin tests of the stool samples being performed at 30° C. normal levels of chymotrypsin are deemed to lie above 8.4 U/gram, whereas pathologically abnormal levels are deemed to lie below 4.2 U/gram. In addition, chymotrypsin levels between 8.4 U/gram and 4.2 U/gram are considered equivocal, and further testing of the individual's fecal chymotrypsin levels over a period of time should be performed.
A preferred secretin infusion process includes the initial step of prepping an arm of the candidate child with an IV injection of saline. A test dose of 1 U of Secretin-Ferring is then administered to the child. […]
In this experiment, 37 autistic children with abnormal fecal chymotrypsin levels were administered secretin over the course of 6 months using the secretin infusion process described above. Their fecal chymotrypsin (FC) levels were measured weekly using the fecal chymotrypsin test described above.

[3] = system: children diagnosed as having autism; test: Experiment 1: Fecal Chymotrypsin Test after secretin infusion; format: in vivo, human (children); details: each of 16 autistic children; approximately one week after first secretin infusion, 1 U/kg IV
Description: as §1
After determining the chymotrypsin levels of the stools, each of these levels were compared with threshold chymotrypsin levels to determine if the child was likely to benefit from secretin administration. […]
The results of Experiment 1 are illustrated in FIGS. 1-14. For instance, approximately one week after the first secretin infusion, the fecal chymotrypsin level of each of the 16 autistic children was measured again. […]

[4] = system: children diagnosed with Autism; details: secretin given as diagnostic procedure during upper gastrointestinal endoscopy (Horvath et al. 1998); cited from earlier work

secretin (HSDGTFTSELSRLRDSARLQRLLQGLV; ends and bridges not checked; UniProt P63298 33-59, looked up) [gastrointestinal peptide hormone]
CARS component scores (all except fear) ([1]; 3 weeks post infusion): improvement | CARS scores, overall change ([1]; approximately 3 weeks after first secretin administration vs pre-secretin): overall decrease | # Autistic Children w/Equivocal FC levels ([2]; pre-secretin 0): 2 | # Autistic Children w/normal FC levels ([2]; pre-secretin 0): 34 | # Autistic Children w/Abnormal FC levels ([2]; pre-secretin 37): 1 | fecal chymotrypsin level post-secretin administration compared with pre-secretin [3]: increased | symptoms associated with Autism after secretin administration [4]: ameliorating the symptoms
